The source of these data is patent US20170305857A1, “N-ACYLPIPERIDINE ETHER TROPOMYOSIN-RELATED KINASE INHIBITORS” (Pfizer Limited, priority 2014, published 2017).

For orientation: IC50 means the concentration needed to halve the response being measured.

The structures appear in SMILES notation.

T1 sequence (P04629 441-796): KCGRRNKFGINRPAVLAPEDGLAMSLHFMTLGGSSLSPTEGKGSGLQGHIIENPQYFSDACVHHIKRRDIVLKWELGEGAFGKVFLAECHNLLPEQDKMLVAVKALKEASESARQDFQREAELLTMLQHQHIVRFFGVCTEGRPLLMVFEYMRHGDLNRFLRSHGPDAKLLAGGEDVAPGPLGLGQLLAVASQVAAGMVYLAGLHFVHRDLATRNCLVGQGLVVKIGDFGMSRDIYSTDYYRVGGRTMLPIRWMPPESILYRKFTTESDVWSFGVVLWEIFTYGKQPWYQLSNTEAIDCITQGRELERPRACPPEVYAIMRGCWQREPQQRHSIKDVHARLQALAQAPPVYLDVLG

The test concerns the target T1, recombinant His-tagged cytoplasmic domains of TRKA receptor (NTRK1, PV3144, aa 441-796) (Homo sapiens, UniProt P04629).
T1 construct: aa 441-796; His; purchased Invitrogen PV3144
The experiment in a line: Isolated TRK enzyme assay (HTRF KinEASE-TK, PV3144 TrkA enzyme assay). Format: biochemical. The note with it: 4 nM enzyme, 40 uM ATP, 35 min, arithmetic mean where more than one reading. How it is done:
Isolated TRK Enzyme assays use the HTRF KinEASE-TK kit (Cisbio Cat #62TK0PEJ) with recombinant His-tagged cytoplasmic domains of TRKA receptor sourced from Invitrogen (see table below). This activity-assay measures the phosphorylation of tyrosine residues within a substrate from the HTRF kit which has been validated by Cisbio for a variety of tyrosine kinases including the TRK receptors.
0.5 mM stock solutions of test compounds are prepared and serially diluted in 100% DMSO. […] Greiner low volume black plates containing 0.2 ul of serially diluted compound, standard and HPE/ZPE are created using the Bravo nanolitre dispenser.
1× enzyme buffer is prepared from 5× Enzymatic Buffer from the Cisbio KinEASE TK kit using MilliQ water. The buffer is then supplemented with 10 mM MgCl and 2 mM DTT (both from Sigma).
Following this preactivation step, 5 ul/well of enzyme+ATP mix is added using a Multidrop Micro to the assay plate, spotted with 0.2 ul 100% DMSO compound. This is left for 20 mins at room temperature before adding 5 ul of 2 uM TK-substrate-Biotin (from the Cisbio kit) diluted in 1× enzyme buffer (1 uM FAC) using the Multidrop Micro. The reaction is incubated at room temperature for the optimized assay reaction time (see table).
After the Detection Reagent addition, plates are covered and incubated at room temperature for 60 minutes. […] Test compound data are expressed as percentage inhibition defined by HPE and ZPE values for each plate. Percentage inhibition in the presence of test compound is plotted against compound concentration on a log scale to determine an IC50 from the resultant sigmoid curve.
Where more than one reading was taken, the arithmetic mean is presented.
For orientation: In TR-FRET formats the signal depends on donor and acceptor labels being close together.
For `C[C@H](O)Cn1cc(-c2ccc(OC3CCN(C(=O)Cc4ccc(OC(F)(F)F)cc4)CC3)c(C(N)=O)c2)cn1` [Example 134], the half-maximal inhibitory concentration (IC50) was found to be 2.5 nM. As for `CC(C)(O)Cn1cc(-c2cnc(O[C@H]3CCN(C(=O)Cc4ccc(OC5CC5)cn4)C[C@H]3F)c(C(N)=O)c2)cn1` [Example 33, 2-{[(3R,4S)-1-{[5-(cyclopropyloxy)pyridin-2-yl]acetyl}-3-fluoropiperidin-4-yl]oxy}-5-[1-(2-hydroxy-2-methylpropyl)-1H-pyrazol-4-yl]pyridine-3-carboxamide], the figure is 4.9 nM. As for `NC(=O)c1cc(-c2cn(CCO)nn2)ccc1OC1CCN(C(=O)Cc2ccc(OC(F)(F)F)cc2)CC1` [Example 174, 5-[1-(2-hydroxyethyl)-1H-1,2,3-triazol-4-yl]-2-[(1-{[4-(trifluoromethoxy)phenyl]acetyl}piperidin-4-yl)oxy]benzamide], the figure is 19.1 nM; as for `Cn1ncc(-c2cnc(O[C@@H]3CCN(C(=O)Cc4ccc(OC(F)(F)F)cc4)C[C@@H]3F)c(C(N)=O)c2)n1` [Example 154, 2-{[(3S,4R)-3-fluoro-1-{[4-(trifluoromethoxy)phenyl]acetyl}piperidin-4-yl]oxy}-5-(2-methyl-2H-1,2,3-triazol-4-yl)pyridine-3-carboxamide], 2.93 nM; as for `N#Cc1cc(-c2ccc(OC3CCN(C(=O)Cc4ccc(OC(F)(F)F)cc4)CC3)c(C(N)=O)c2)cs1` [Example 144, 5-(5-cyanothiophen-3-yl)-2-[(1-{[4-(trifluoromethoxy)phenyl]acetyl}piperidin-4-yl)oxy]benzamide], 16.7 nM. For `Cn1cnc(-c2ccc(OC3CCN(C(=O)Cc4ccc(OC(F)(F)F)cc4)C4CC34)c(C(N)=O)c2)c1` (centres unmarked) [Example 159, 5-(1-methyl-1H-imidazol-4-yl)-2-[(2-{[4-(trifluoromethoxy)phenyl]acetyl}-2-azabicyclo[4.1.0]hept-5-yl)oxy]benzamide], the half-inhibitory concentration (IC50) was found to be 17.8 nM.

As for `NC(=O)c1cc(-c2cn(CCO)cn2)ccc1OC1CCN(C(=O)Cc2ccc(OC(F)(F)F)cc2)CC1` [Example 115, 5-[1-(2-hydroxyethyl)-1H-imidazol-4-yl]-2-[(1-{[4-(trifluoromethoxy)phenyl]acetyl}piperidin-4-yl)oxy]benzamide], the IC50 was 4.4 nM. The result for `CNC(=O)Cn1cnc(-c2ccc(OC3CCN(C(=O)Cc4ccc(OC(F)(F)F)cc4)CC3)c(C(N)=O)c2)c1` [Example 128, 5-{1-[2-(methylamino)-2-oxoethyl]-1H-imidazol-4-yl}-2-[(1-{[4-(trifluoromethoxy)phenyl]acetyl}piperidin-4-yl)oxy]benzamide] reads 6.1 nM; that for `Cn1cnc(-c2ccc(O[C@H]3[C@@H]4CO[C@H]3CN(C(=O)Cc3ccc(OC(F)(F)F)cc3)C4)c(C(N)=O)c2)c1` [Example 158, 5-(1-methyl-1H-imidazol-4-yl)-2-{[(1S,5S,8S)-3-{[4-(trifluoromethoxy)phenyl]acetyl}-6-oxa-3-azabicyclo[3.2.1]oct-8-yl]oxy}benzamide], 18.4 nM; that for `CS(=O)(=O)Cn1cc(-c2cc(C(N)=O)c(O[C@@H]3CCN(C(=O)Cc4ccc(OC(F)(F)F)c(F)c4)C[C@@H]3F)cn2)cn1` [Example 37, 5-{[(3S,4R)-3-fluoro-1-{[3-fluoro-4-(trifluoromethoxy)phenyl]acetyl}piperidin-4-yl]oxy}-2-{1-[(methylsulfonyl)methyl]-1H-pyrazol-4-yl}pyridine-4-carboxamide], 7.4 nM. In the case of `NC(=O)c1cc(-c2cn[nH]c2)ncc1O[C@H]1CCN(C(=O)Cc2ccc(OC(F)(F)F)cc2)C[C@@H]1F` [Example 86, 5-{[(3S,4S)-3-fluoro-1-{[4-(trifluoromethoxy)phenyl]acetyl}piperidin-4-yl]oxy}-2-(1H-pyrazol-4-yl)pyridine-4-carboxamide], the IC50 stood at 10.5 nM. The result for `Cc1n[nH]c(C)c1-c1cnc(O[C@@H]2CCN(C(=O)Cc3ccc(OC4CC4)cn3)C[C@@H]2F)c(C(N)=O)c1` [Example 79, 2-{[(3S,4R)-1-{[5-(cyclopropyloxy)pyridin-2-yl]acetyl}-3-fluoropiperidin-4-yl]oxy}-5-(3,5-dimethyl-1H-pyrazol-4-yl)pyridine-3-carboxamide] reads 6.9 nM; that for `NC(=O)c1cc(-c2ccc(C(=O)O)cc2)cnc1OC1CCN(C(=O)Cc2ccc(OC(F)(F)F)cc2)CC1` [Example 95, 4-{5-carbamoyl-6-[(1-{[4-(trifluoromethoxy)phenyl]acetyl}piperidin-4-yl)oxy]pyridin-3-yl}benzoic acid], 5.9 nM; that for `NCCn1cc(-c2ccc(OC3CCN(C(=O)Cc4ccc(OC(F)(F)F)cc4)CC3)c(C(N)=O)c2)cn1` [Example 138, 5-[1-(2-aminoethyl)-1H-pyrazol-4-yl]-2-[(1-{[4-(trifluoromethoxy)phenyl]acetyl}piperidin-4-yl)oxy]benzamide], 7 nM.

For `Cn1cc(-c2ccc(OC3CCN(C(=O)Cc4ccc(OC5CC5)cc4)CC3)c(C(N)=O)c2)cn1` [Example 178, 2-[(1-{[4-(cyclopropyloxy)phenyl]acetyl}piperidin-4-yl)oxy]-5-(1-methyl-1H-pyrazol-4-yl)benzamide], the IC50 amounted to 8.57 nM. For the molecule `NC(=O)c1cc(-c2cn[nH]c2)cnc1O[C@H]1CCN(C(=O)Cc2ccc(OC3CC3)cn2)C[C@@H]1F` [Example 80, 2-{[(3S,4S)-1-{[5-(cyclopropyloxy)pyridin-2-yl]acetyl}-3-fluoropiperidin-4-yl]oxy}-5-(1H-pyrazol-4-yl)pyridine-3-carboxamide], the IC50 turned out to be 9.9 nM.

With `NC(=O)c1cc(-c2c[nH]nn2)ccc1OC1CCN(C(=O)Cc2ccc(OC(F)(F)F)cc2)CC1` [Example 136, 5-(1H-1,2,3-triazol-4-yl)-2-((1-(2-(4-(trifluoromethoxy)phenyl)acetyl)piperidin-4-yl)oxy)benzamide], the half-maximal inhibitory concentration (IC50) stood at 5.3 nM. As for `Cc1n[nH]c(C)c1-c1cnc(O[C@H]2CCN(C(=O)Cc3ccc(OC4CC4)cn3)C[C@@H]2F)c(C(N)=O)c1` [Example 167, 2-{[(3S,4S)-1-{[5-(cyclopropyloxy)pyridin-2-yl]acetyl}-3-fluoropiperidin-4-yl]oxy}-5-(3,5-dimethyl-1H-pyrazol-4-yl)pyridine-3-carboxamide], the figure is 19.4 nM; as for `CS(=O)(=O)Cn1cc(-c2cnc(OC3CCN(C(=O)Cc4ccc(OC(F)(F)F)cc4)CC3)c(C(N)=O)c2)cn1` [Example 20, 5-{1-[(methylsulfonyl)methyl]-1H-pyrazol-4-yl}-2-[(1-{[4-(trifluoromethoxy)phenyl]acetyl}pjperidin-4-yl)oxy]pyridine-3-carboxamide], 5.7 nM. As for `NC(=O)c1cc(-c2cnn(CCO)c2)ccc1OC1CCN(C(=O)Cc2ccc(OC(F)(F)F)cc2)CC1` [Example 58, 5-[1-(2-hydroxyethyl)-1H-pyrazol-4-yl]-2-[(1-{[4-(trifluoromethoxy)phenyl]acetyl}piperidin-4-yl)oxy]benzamide], the figure is 5.5 nM; as for `Cn1cnc(-c2ccc(O[C@H]3CCN(C(=O)Cc4ccc(OC5CC5)cc4)C[C@H]3F)c(C(N)=O)c2)c1` (racemic) [Example 40, 1:1 Cis-racemic 2-{[1-{[4-(cyclopropyloxy)phenyl]acetyl}-3-fluoropiperidin-4-yl]oxy}-5-(1-methyl-1H-imidazol-4-yl)benzamide], 1 nM; as for `Cc1nc(-c2ccc(OC3CCN(C(=O)Cc4ccc(OC(F)(F)F)cc4)CC3)c(C(N)=O)c2)c[nH]1` [Example 146, 5-(2-methyl-1H-imidazol-4-yl)-2-[(1-{[4-(trifluoromethoxy)phenyl]acetyl}piperidin-4-yl)oxy]benzamide], 11.6 nM. As for `Cn1cc(-c2ccc(OC3CCN(C(=O)Cc4ccc(OC(F)(F)F)c(Cl)c4)CC3)c(C(N)=O)c2)cn1` [Example 110, 2-[(1-{[3-chloro-4-(trifluoromethoxy)phenyl]acetyl}piperidin-4-yl)oxy]-5-(1-methyl-1H-pyrazol-4-yl)benzamide], the IC50 turned out to be 110 nM.

`Cn1cnc(-c2cnc(O[C@H]3CCN(C(=O)Cc4ccc(OC5CC5)cc4)C[C@@H]3F)c(C(N)=O)c2)c1` [Example 27, 2-{[(3S,4S)-1-{[4-(cyclopropyloxy)phenyl]acetyl}-3-fluoropiperidin-4-yl]oxy}-5-(1-methyl-1H-imidazol-4-yl)pyridine-3-carboxamide]: the IC50 was found to be 2.1 nM. As to `CS(=O)(=O)Cn1cc(-c2cnc(O[C@H]3CCN(C(=O)Cc4ccc(OC5CC5)cc4)C[C@@H]3F)c(C(N)=O)c2)cn1` [Example 30, 2-{[(3S,4S)-1-{[4-(cyclopropyloxy)phenyl]acetyl}-3-fluoropiperidin-4-yl]oxy}-5-{1-[(methylsulfonyl)methyl]-1H-pyrazol-4-yl}pyridine-3-carboxamide], the IC50 worked out at 4.8 nM. Turning to `NC(=O)c1cc(-c2cn[nH]c2)ccc1O[C@H]1CCN(C(=O)Cc2ccc(OC(F)(F)F)cc2)C[C@H]1F` [Example 5, 2-{[(3R,4S)-3-fluoro-1-{[4-(trifluoromethoxy)phenyl]acetyl}piperidin-4-yl]oxy}-5-(1H-pyrazol-4-yl)benzamide], the IC50 is 0.9 nM.
